Measurements: patent publication US8900194B2, “Microneedle devices and microneedle delivery apparatus” (3M Innovative Properties Company, priority 2002, dated 2014)

Details: human, 0 h

O=[N+]([O-])OCC(CO[N+](=O)[O-])O[N+](=O)[O-] [Nitroglycerin, nitroglycerin]
Nitroglycerin Cumulative Flux: 0 μg/cm^2
